Measured values from publication PMC5234683 (Psychopharmacology, 2014).
Like-named read-outs stand apart in the source and are kept apart here.

How the values were obtained:
Beta1 = details: read-out: Ki (nM) Beta1; PDSP database; ref PDSP http://pdsp.med.unc.edu/; cited from earlier work
H3 = details: read-out: Ki (nM) H3; PDSP database; ref PDSP http://pdsp.med.unc.edu/; cited from earlier work
MOR = details: read-out: Ki (nM) MOR; PDSP database; ref PDSP http://pdsp.med.unc.edu/; cited from earlier work
D5R [1] = biological target: T1, D5R (Homo sapiens, UniProt P21918); assay: DiscoveRx HitHunter cAMP accumulation assay, HEK293 cells; type: cell-based; details: agonist mode
H4 = details: read-out: Ki (nM) H4; PDSP database; ref PDSP http://pdsp.med.unc.edu/; cited from earlier work
H2 = details: read-out: Ki (nM) H2; PDSP database; ref PDSP http://pdsp.med.unc.edu/; cited from earlier work
Beta2 = details: read-out: Ki (nM) Beta2; PDSP database; ref PDSP http://pdsp.med.unc.edu/; cited from earlier work
NET = details: read-out: Ki (nM) NET; PDSP database; ref PDSP http://pdsp.med.unc.edu/; cited from earlier work
5-HT3 = details: read-out: Ki (nM) 5-HT3; PDSP database; ref PDSP http://pdsp.med.unc.edu/; cited from earlier work
D2R [2] = biological target: T2, D2R (Homo sapiens, UniProt P14416); assay: DiscoveRx PathHunter β-arrestin-2 recruitment assay, CHO-K1 cells; type: cell-based; details: agonist mode; concentrations up to 100 μM
Sigma-1 = details: read-out: Ki (nM) Sigma-1; PDSP database; ref PDSP http://pdsp.med.unc.edu/; cited from earlier work
D5 = details: read-out: Ki (nM) D5; PDSP database; ref PDSP http://pdsp.med.unc.edu/; cited from earlier work
5-HT1A receptor = details: ref Gao et al. 2011; Guo et al. 2009; cited from earlier work
DOR = details: read-out: Ki (nM) DOR; PDSP database; ref PDSP http://pdsp.med.unc.edu/; cited from earlier work
D1R [3] = biological target: T3, D1R (Homo sapiens, UniProt P21728); details: agonist mode; tested up to 0.1 mM
D2R [4] = biological target: T2, D2R; assay: Radioligand competition binding, [3H]-methylspiperone, HEK293 membranes; details: competition with 0.5 nM [3H]-methylspiperone; n=3
5-HT1E = details: read-out: Ki (nM) 5-HT1E; PDSP database; ref PDSP http://pdsp.med.unc.edu/; cited from earlier work
[5] = biological target: D1-like receptors in bovine striatal membranes (Bos taurus, UniProt Q95136); assay: Bovine striatal radioligand binding assay, [3H]-SCH23390; details: read-out: Ki, one-site fit, 0.5 nM [3H]-SCH23390
5-HT6 = details: read-out: Ki (nM) 5-HT6; PDSP database; ref PDSP http://pdsp.med.unc.edu/; cited from earlier work
H1 = details: read-out: Ki (nM) H1; PDSP database; ref PDSP http://pdsp.med.unc.edu/; cited from earlier work
Alpha2B = details: read-out: Ki (nM) Alpha2B; PDSP database; ref PDSP http://pdsp.med.unc.edu/; cited from earlier work
5-HT1D = details: read-out: Ki (nM) 5-HT1D; PDSP database; ref PDSP http://pdsp.med.unc.edu/; cited from earlier work
5-HT5 = details: read-out: Ki (nM) 5-HT5; PDSP database; ref PDSP http://pdsp.med.unc.edu/; cited from earlier work
D1R–D2R heteromer = D1R–D2R heteromer (Homo sapiens, UniProt P14416+P21728); assay: D1R–D2R-mediated calcium mobilization assay, co-transfected HEK293T cells; type: cell-based
D4 = details: read-out: Ki (nM) D4; PDSP database; ref PDSP http://pdsp.med.unc.edu/; cited from earlier work
Alpha1B = details: read-out: Ki (nM) Alpha1B; PDSP database; ref PDSP http://pdsp.med.unc.edu/; cited from earlier work
D1R [6] = biological target: T3, D1R; assay: DiscoveRx PathHunter β-arrestin-2 recruitment assay, CHO-K1 cells; type: cell-based; details: agonist mode; concentrations up to 100 μM
CB2 = details: read-out: Ki (nM) CB2; PDSP database; ref PDSP http://pdsp.med.unc.edu/; cited from earlier work
Alpha2C = details: read-out: Ki (nM) Alpha2C; PDSP database; ref PDSP http://pdsp.med.unc.edu/; cited from earlier work
[7] = ref Sun et al. (2009); cited from earlier work
5-HT1A = details: read-out: Ki (nM) 5-HT1A; PDSP database; ref PDSP http://pdsp.med.unc.edu/; cited from earlier work
Sigma-2 = details: read-out: Ki (nM) Sigma-2; PDSP database; ref PDSP http://pdsp.med.unc.edu/; cited from earlier work
5-HT2A = details: read-out: Ki (nM) 5-HT2A; PDSP database; ref PDSP http://pdsp.med.unc.edu/; cited from earlier work
D5R [8] = biological target: T1, D5R; assay: DiscoveRx PathHunter β-arrestin-2 recruitment assay, CHO-K1 cells; type: cell-based; details: agonist mode; concentrations up to 100 μM
GABA-A = details: read-out: Ki (nM) GABA-A; PDSP database; ref PDSP http://pdsp.med.unc.edu/; cited from earlier work
5-HT2C = details: read-out: Ki (nM) 5-HT2C; PDSP database; ref PDSP http://pdsp.med.unc.edu/; cited from earlier work
M2 = details: read-out: Ki (nM) M2; PDSP database; ref PDSP http://pdsp.med.unc.edu/; cited from earlier work
5-HT1B = details: read-out: Ki (nM) 5-HT1B; PDSP database; ref PDSP http://pdsp.med.unc.edu/; cited from earlier work
D3R [9] = biological target: T4, D3R (Homo sapiens, UniProt P35462); assay: DiscoveRx PathHunter β-arrestin-2 recruitment assay, CHO-K1 cells; type: cell-based; details: agonist mode; concentrations up to 100 μM
D4R [10] = biological target: T5, D4R (Homo sapiens, UniProt P21917); assay: Radioligand competition binding, [3H]-methylspiperone, CHO membranes; details: competition with 0.5 nM [3H]-methylspiperone; n=3
KOR = details: read-out: Ki (nM) KOR; PDSP database; ref PDSP http://pdsp.med.unc.edu/; cited from earlier work
DAT = details: read-out: Ki (nM) DAT; PDSP database; ref PDSP http://pdsp.med.unc.edu/; cited from earlier work
D3R [11] = biological target: T4, D3R; assay: Radioligand competition binding, [3H]-methylspiperone, HEK293 membranes; details: competition with 0.5 nM [3H]-methylspiperone; n=3
5-HT7 = details: read-out: Ki (nM) 5-HT7; PDSP database; ref PDSP http://pdsp.med.unc.edu/; cited from earlier work
Alpha2A = details: read-out: Ki (nM) Alpha2A; PDSP database; ref PDSP http://pdsp.med.unc.edu/; cited from earlier work
CB1 = details: read-out: Ki (nM) CB1; PDSP database; ref PDSP http://pdsp.med.unc.edu/; cited from earlier work
D1 = details: read-out: Ki (nM) D1; PDSP database; ref PDSP http://pdsp.med.unc.edu/; cited from earlier work
D1R [12] = biological target: T3, D1R; assay: HTRF cAMP assay; type: cell-based; details: agonist mode; Supplemental Fig. 1
SERT = details: read-out: Ki (nM) SERT; PDSP database; ref PDSP http://pdsp.med.unc.edu/; cited from earlier work
D1R [13] = biological target: T3, D1R; assay: Radioligand competition binding, [3H]-SCH23390, HEK293 membranes; details: competition with 0.5 nM [3H]-SCH23390; single site; n=3
5-HT2B = details: read-out: Ki (nM) 5-HT2B; PDSP database; ref PDSP http://pdsp.med.unc.edu/; cited from earlier work
D2 = details: read-out: Ki (nM) D2; PDSP database; ref PDSP http://pdsp.med.unc.edu/; cited from earlier work
D2R [14] = biological target: T2, D2R; type: cell-based; details: agonist mode; 100 μM forskolin
M5 = details: read-out: Ki (nM) M5; PDSP database; ref PDSP http://pdsp.med.unc.edu/; cited from earlier work
D3 = details: read-out: Ki (nM) D3; PDSP database; ref PDSP http://pdsp.med.unc.edu/; cited from earlier work
Alpha1A = details: read-out: Ki (nM) Alpha1A; PDSP database; ref PDSP http://pdsp.med.unc.edu/; cited from earlier work
D4R [15] = biological target: T5, D4R; assay: DiscoveRx PathHunter β-arrestin-2 recruitment assay, CHO-K1 cells; type: cell-based; details: agonist mode; concentrations up to 100 μM

COc1cc2c(cc1O)[C@@H]1Cc3ccc(O)c(OC)c3CN1CC2 [(−)-stepholidine, (−)-Stepholidine]
Ki (Beta1): > 10000 nM
Ki (H3): > 10000 nM
Ki (MOR): > 10000 nM
agonist activity, cAMP accumulation (D5R [1]): failed to produce any measurable cAMP accumulation
Ki (H4): > 10000 nM
Ki (H2): > 10000 nM
Ki (Beta2): > 10000 nM
Ki (NET): > 10000 nM
Ki (5-HT3): > 10000 nM
agonist activity, β-arrestin-2 recruitment (D2R [2]): failed to produce any measurable recruitment of β-arrestin-2
Ki (Sigma-1): 1600 nM
Ki (D5): 4.4 nM
functional profile at the 5-HT1A receptor (5-HT1A receptor): partial agonist
Ki (DOR): > 10000 nM
agonist activity, cAMP accumulation (D1R [3]): has no effect on cAMP accumulation
Ki (D2R [4]): 0.0116 ± 0.0042 µM
Ki (5-HT1E): > 10000 nM
Ki ([5]; control, absence of GTPγS): 0.016 ± 0.0024 µM
Ki ([5]; presence of 1 mM GTPγS): 0.0192 ± 0.0044 µM
Ki (5-HT6): > 10000 nM
Ki (H1): > 10000 nM
Ki (Alpha2B): 6880 nM
Ki (5-HT1D): > 10000 nM
Ki (5-HT5): > 10000 nM
agonist activity, Ca2+ mobilization (D1R–D2R heteromer; agonist mode, concentrations up to 50 μM): no Ca^2+ mobilization was detected
IC50 (D1R–D2R heteromer; read-out: IC50, inhibition of dopamine-stimulated calcium mobilization, EC80 (1 μM) dopamine, n=3): 0.0193 ± 0.0037 µM
Ki (D4): 3750 nM
Ki (Alpha1B): > 10000 nM
agonist activity, β-arrestin-2 recruitment (D1R [6]): failed to produce any measurable recruitment of β-arrestin-2
Ki (CB2): > 10000 nM
Ki (Alpha2C): 214 nM
metabolism after administration [7]: rapidly metabolized within minutes of administration
Ki (5-HT1A): 143 nM
Ki (Sigma-2): 53.4 nM
Ki (5-HT2A): > 10000 nM
agonist activity, β-arrestin-2 recruitment (D5R [8]): failed to produce any measurable recruitment of β-arrestin-2
Ki (GABA-A): > 10000 nM
Ki (5-HT2C): > 10000 nM
Ki (M2): > 10000 nM
Ki (5-HT1B): 6980 nM
agonist activity, β-arrestin-2 recruitment (D3R [9]): failed to produce any measurable recruitment of β-arrestin-2
Ki (D4R [10]): 1.45 µM
Ki (KOR): > 10000 nM
Ki (DAT): > 10000 nM
Ki (D3R [11]): 0.0234 ± 0.0087 µM
Ki (5-HT7): > 10000 nM
Ki (Alpha2A): > 10000 nM
Ki (CB1): > 10000 nM
Ki (D1): 5.9 nM
agonist activity, cAMP accumulation (HTRF) (D1R [12]): did not stimulate D1R-mediated cAMP accumulation
Ki (SERT): > 10000 nM
Ki (D1R [13]): 0.0051 ± 0.0023 µM
Ki (5-HT2B): 226 nM
Ki (D2): 974 nM
agonist activity, inhibition of forskolin-stimulated cAMP accumulation (D2R [14]): has no effect on inhibiting cAMP accumulation
Ki (M5): > 10000 nM
Ki (D3): 30.1 nM
Ki (Alpha1A): > 10000 nM
agonist activity, β-arrestin-2 recruitment (D4R [15]): failed to produce any measurable recruitment of β-arrestin-2
